Experiments:
Assay type in all cases: in vivo
[1] = Antioxidant (NAC) experiments in mice; settings: NAC 10 mg/kg IP, H2O2 1.5 μmol, PCL-2 and D-cysteine 0.05 μmol each
Source text: A Xenogen IVIS Spectrum instrument (Caliper Life Sciences, Hopkinton, Mass.) was used for bioluminescent imaging in all animal experiments. Mice were anesthetized prior to injection and during imaging via inhalation of isoflurane. Phosphate Buffered Saline (PBS) was purchased from Thermo Fisher Scientific (Waltham, Mass.), and saline (0.9%) was made from sodium chloride and Millipore water. Isoflurane was purchased from Phoenix Pharmaceuticals, Inc. (St. Joseph, Mo.), and pharmaceutical grade DMSO was purchased from Sigma-Aldrich (St. Louis, Mo.). Medical grade oxygen was purchased from Praxair (Danbury, Conn.). FVB-luc^+ (FVB-Tg(CAG-luc,-GFP)L2G85Chco/J) mice were bred at UC Berkeley, and were single or group-housed on a 12:12 light-dark cycle at 22° C. with free access to food and water. All studies were approved and performed according to the guidelines of the Animal Care and Use Committee of the University of California, Berkeley. Unshaven, male FVB-luc^+ mice, were anesthetized with isoflurane and injected IP with NAC (10 mg/kg in 25 μL of PBS, pH 7-8) or PBS (25 μL). After 2 min, the mice were injected IP with a mixture of PCL-2 and D-cysteine (0.05 μmol each, in 50 μL of 1:1 DMSO:PBS) immediately prior to IP injection of H2O2 (1.5 μmol in 75 μL of PBS). […]

[2] = biological target: T1, caspase 8 (Mus musculus, UniProt O89110); test: Lipopolysaccharide inflammation model, caspase 8 detection with IETDC; settings: pan-caspase inhibitor 1 μmol IP, LPS-treated mice
T1 construct: from tissue; host or cells: living FVB-luc+ mice (whole animal, IP injection) after LPS challenge
T1 sequence (O89110 219-376 limits assumed): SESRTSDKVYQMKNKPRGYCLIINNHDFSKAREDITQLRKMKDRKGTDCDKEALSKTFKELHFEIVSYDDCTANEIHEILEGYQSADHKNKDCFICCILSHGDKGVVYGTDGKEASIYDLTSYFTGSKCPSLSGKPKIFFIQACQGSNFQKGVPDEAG
T1 sequence (O89110 388-480 limits assumed): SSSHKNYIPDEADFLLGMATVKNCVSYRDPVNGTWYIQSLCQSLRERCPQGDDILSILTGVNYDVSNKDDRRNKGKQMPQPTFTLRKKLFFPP
Source text: (§1) A Xenogen IVIS Spectrum instrument (Caliper Life Sciences, Hopkinton, Mass.) was used for bioluminescent imaging in all animal experiments. Mice were anesthetized prior to injection and during imaging via inhalation of isoflurane. Phosphate Buffered Saline (PBS) was purchased from Thermo Fisher Scientific (Waltham, Mass.), and saline (0.9%) was made from sodium chloride and Millipore water. Isoflurane was purchased from Phoenix Pharmaceuticals, Inc. (St. Joseph, Mo.), and pharmaceutical grade DMSO was purchased from Sigma-Aldrich (St. Louis, Mo.). Medical grade oxygen was purchased from Praxair (Danbury, Conn.).
(§2) FVB-luc^+ (FVB-Tg(CAG-luc,-GFP)L2G85Chco/J) mice were bred at UC Berkeley, and were single or group-housed on a 12:12 light-dark cycle at 22° C. with free access to food and water. All studies were approved and performed according to the guidelines of the Animal Care and Use Committee of the University of California, Berkeley.
Unshaven, female FVB-luc^+ mice, aged 2-5 months, were anesthetized with isoflurane and injected IP with lipopolysaccharides (LPS, 3 mg/kg in 50 μL of saline) or saline (50 μL). For studies with PCL-2 alone, mice were injected IP with either apocynin (10 mg/kg in 20 μL of DMSO) or DMSO (20 μL) 6 h after LPS injection. […]

[3] = system: H2O2 and caspase 8; test: Lipopolysaccharide inflammation model, dual detection with PCL-2 and IETDC; settings: ascorbic acid 200 mg/kg and z-VD-OPh 1 μmol used together, LPS-treated mice
Source text: as §1, §2
For studies with PCL-2 and IETDC, mice were injected IP with ascorbic acid (200 mg/kg in 30 μL of saline) or the saline vehicle (30 μL) 30 min prior to IP injection of LPS (3 mg/kg in 50 μL of saline) or saline (50 μL). Two hours after injection of LPS, z-VD(OMe)-OPh (1 μmol in 20 μL of DMSO) or the vehicle, DMSO (20 μL), was injected IP. […]

[4] = system: FVB-luc^+ mice; test: Control: effect of inhibitors and antioxidants on HCBT and D-cysteine luciferin signal in mice; settings: apocynin 10 mg/kg or z-VD-OPh 1 μmol IP; HCBT and D-cysteine 0.01 μmol each
Description: (a) Total photon fluxes, 0-15 min post-injection, for mice (n=3) injected with apocynin (IP, 10 mg/kg in 20 μL DMSO) or vehicle (IP, 20 μL DMSO) two min prior to injections of a mixture of HCBT and D-cysteine (IP, 0.01 μmol each, in 50 μL of 1:1 DMSO:PBS). (b) Total photon fluxes, 15-45 min post-injection, for mice (n=3) injected with z-VD(OMe)-OPh (IP, 1 μmol in 20 μL DMSO) or vehicle (IP, 20 μL DMSO) 30 min prior to injections of a mixture of HCBT and D-cysteine (IP, 0.01 μmol each, in 50 μL of 1:1 DMSO:PBS). Error bars are ±SEM.
FIG. 18 depicts bioluminescent signals from HCBT and D-cysteine with ascorbic acid in FVB-luc^+ mice. Total photon fluxes, 30-60 min post-injection, for mice (n=3-4) injected with ascorbic acid (IP, 200 mg/kg in 30 μL saline) or vehicle (IP, 30 μL saline) 4.5 h prior to injections of a mixture of HCBT and D-cysteine (IP, 0.01 μmol each, in 50 μL of 1:1 DMSO:PBS). Error bars are ±SEM.

SMILES | effect of NAC on the PCL-2 bioluminescent signal [1] | attenuation of the IETDC signal [2] [%] | decrease in dual-probe bioluminescent signal [3] [%] | effect on the luciferin signal from HCBT and D-cysteine in vivo [4]
CC(=O)N[C@@H](CS)C(=O)O [NAC, N-acetyl-L-cysteine] | considerably attenuated | – | – | –
COC(=O)CC(NC(=O)C(NC(=O)OCc1ccccc1)C(C)C)C(=O)COc1c(F)cccc1F (stereo not shown) [z-VD-OPh] | – | 34 | 30 | do not alter the luciferin signal

— patent US10328161B2, “Luciferin derivatives from bicyclic reactants and aminothiol derivatives and methods of use thereof” (The Regents of the University of California, priority 2012, dated 2019)
